In the assay the test system is P. aeruginosa strain PA54 keratitis. In words: Murine Pseudomonas keratitis model. Type of assay: in vivo, mouse. Here is the method:
Based on our previous findings on target engagement in a murine pneumonia model in combination with a standard‐of‐care antibiotic,^[ [30] ^] we applied the dipeptide (R)‐30 alone and in combination with the commonly used antibiotic meropenem.^[ [9] ^] The keratitis model was carried out using aged female C57BL/6 mice, as previously published.^[ [37] ^] For infection, 5*10^7 colony forming units (CFUs) of PA54 were topically administered on denuded, mechanically harmed corneas. Treatments with meropenem, (R)‐30, or meropenem in combination with (R)‐30 were performed every 8 h for 72 h (first treatment at 6 h post infection). Each of the in total nine 5 µL‐doses contained 1 mg/mL (R)‐30 and/or 0.5 mg mL^−1 meropenem. Sham‐treated mice received 5 µL‐doses of the vehicle (0.9% saline and 1% DMSO) at the time points indicated above, and uninfected eyes received no treatment. […]
Animals: The animal experiments were approved by Saarland University’s Animal Welfare Committee (Application number: 17/2021) and conducted in accordance with German and European recommendations and guidelines for the ethical use of animals. The laboratory animals were all C57BL/6N female eight to eleven months old mice. Keeping in specific pathogen-free conditions was provided. Unlimited access to water and show was secured.
Temperature was closely maintained around 22 °C and relative air humidity around 50%. Light and darkness alternated at twelve-hour intervals. All laboratory animals were purchased from Charles River GmbH, Sulzfeld, Germany.
P. aeruginosa: The P. aeruginosa strain PA54 was employed to induce an experimental bacterial keratitis in the aforementioned C57BL/6N mice. The strain PA54 was isolated from human infections and collected at Saarland University Medical Center’s Institute for Medical Microbiology and Hygienics (IMMH) in 2009. According to Magiorakos et al., PA54 can be classified as multidrug-resistant due to its lacking sensibility to the anti-pseudomonal cephalosporins ceftazidime and cefepime, the anti-pseudomonal fluoroquinolones ciprofloxacin and levofloxacin, the […] fosfomycin, and the aminoglycoside gentamicin.[18] The minimum inhibitory concentration (MIC) of the reserve antibiotic meropenem (meropenem trihydrate, Sigma) was 1 µg/mL (sensitivity limit = 2 µg/mL). The exoU- and exoT-positivity of the PA54 strain, foregrounds its keratitogenic potential.
Inoculum: The P. aeruginosa strain PA54 is routinely grown overnight on blood agar (TrypticaseTM Soy Agar, 5% sheep blood, BD, Heidelberg, Germany) at 37 °C. To obtain a stationary phase cell inoculum, a freshly grown colony was inoculated in tryptic soy broth (TSB; BD, Heidelberg, Germany) and cultured at 37 °C and 150 rounds per minute (rpm) for 16 h.
Then, 2 mL were centrifuged at 13,200 rpm at rt for 2 min, whereupon cells were resuspended in spent medium to an OD600 of 10 (∼1×1010 CFU/mL). Short storage on ice followed, before the infection procedure started.
Infection Procedure: Anesthesia and infection were performed as previously published. Briefly, fentanyl (Hameln Pharma Plus GmbH, Hameln, Germany), midazolam hydrochloride (Midazolam-Hameln, 5 mg/mL, Hameln pharma GmbH, Germany) and medetomidine hydrochloride (Domitor, Orion Corporation, Espoo, Finland) were dissolved in 0.9% NaCl (NaCl 0.9%, Ecotainer 500 mL, B. Braun, Melsungen, Germany), dosed at 0.05 mg/kg, 5 mg/kg and 0.5 mg/kg body weight, respectively, and applied by intraperitoneal injection. Analgesia (Carprofen, 5 mg/kg body weight, Zoetis Deutschland GmbH, Berlin, Germany) was ap plied subcutaneously. Lacrimation was stopped with 10 µL of a 0.6% acetylcysteine solution (Pharmacy of Saarland University Hospitals, Homburg, Germany). Local analgesia (0.5% proxymetacaine hydrochloride, Proparakain -POS Augentropfen, Ursapharm Arzneimitt el GmbH, Saarbrücken, Germany) was eye-dropped and removed after 60 seconds. The blunt […]

The record followed here is article PMC11984924, “Dipeptidic Phosphonates: Potent Inhibitors of Pseudomonas aeruginosa Elastase B Showing Efficacy in a Murine Keratitis Model” (Advanced Science, 2025).

Take `CC(=O)c1ccc(NC(=O)[C@@H](NC(=O)[C@@H](CC(C)C)P(=O)(O)O)C(C)C)cc1` [(R)‐30]: the “effect on bacterial loads in the eye” value (day 3 post infection) is “no clear effect on the bacterial loads”. Moreover, under “day 3 post infection, compared to sham treatment / uninfected eyes”, the “IL‐1β levels in eye homogenate” value was “significant reduction”. Where the note is “day 3 post infection, compared to uninfected eyes”, the “KC levels in eye homogenate” value is reported as “significantly higher amounts of this chemokine”. Besides, the “median clinical keratitis score” value (day three post infection, topical every 8 h for 72 h, 1 mg/mL (R)-30 and/or 0.5 mg/mL meropenem) was 4.
